Laboratory results published in article PMC7594867 (Journal of Enzyme Inhibition and Medicinal Chemistry, 2020).
Where two headings read alike, the source gives them in different places.

Columns and labels:
[1] = tested on: normal human foetal lung fibroblast (MRC-5); experiment: MTT cytotoxicity assay, normal MRC-5 cells; assay type: cell-based; conditions: MRC5, 72 h, read-out: IC50 (µM ± SD) MRC-5
MCF-7 = experiment: MTT cytotoxicity assay, MCF-7; assay type: cell-based; conditions: for IC50: Homo sapiens, MCF7, 72 h, read-out: IC50 ± SD, MCF-7; for Selectivity index, MCF-7: IC50 MRC-5 / IC50 MCF-7
A2780 = experiment: MTT cytotoxicity assay, A2780; assay type: cell-based; conditions: for IC50: Homo sapiens, A2780, 72 h, read-out: IC50 ± SD, A2780; for Selectivity index, A2780: IC50 MRC-5 / IC50 A2780
HT29 = experiment: MTT cytotoxicity assay, HT29; assay type: cell-based; conditions: for IC50: Homo sapiens, HT-29, 72 h, read-out: IC50 ± SD, HT29; for Selectivity index, HT29: IC50 MRC-5 / IC50 HT29
[2] = tested on: MCF-7, A2780, and HT29 cell lines; experiment: MTT cytotoxicity assay, three cancer cell lines taken together; assay type: cell-based
MCF-7 cells [3] = experiment: Cell cycle analysis; assay type: cell-based; conditions: for effect on cell cycle: MCF-7, 24 h, 1, 5, 10 µM; for number of cells in the G1 cell-cycle phase: MCF-7, 24 h, highest increase, concentration not given
CDK-2 = CDK-2 (Homo sapiens, UniProt P24941); experiment: CDK-2 inhibition, ADP-Glo kinase assay; assay type: biochemical
MCF-7 cells [4] = experiment: Annexin V-FITC/PI staining apoptosis assay; assay type: cell-based; conditions: MCF-7, 24 h, control 0%
[5] = 72 h, read-out: IC50, range over the three cancer cell lines

| SMILES | IC50 [1] | IC50 (MCF-7) | Selectivity index, MCF-7 (MCF-7) | IC50 (A2780) | Selectivity index, A2780 (A2780) | IC50 (HT29) | Selectivity index, HT29 (HT29) | IC50 [2, 5] | Selectivity index, range over the three cell lines ([2]; IC50 MRC-5 / IC50 cancer cell line) | IC50 ([2]; read-out: Average IC50) | effect on cell cycle (MCF-7 cells [3]) | number of cells in the G1 cell-cycle phase (MCF-7 cells [3]) | IC50 (CDK-2) | apoptotic events (MCF-7 cells [4]; 1 µM) | apoptotic events (MCF-7 cells [4]; 5 µM) | apoptotic events (MCF-7 cells [4]; 10 µM) |
| --- | --- | --- | --- | --- | --- | --- | --- | --- | --- | --- | --- | --- | --- | --- | --- | --- |
| CCCCCCNC(=O)Nc1c(C#N)c2n(c1C(=O)Nc1ccccc1)CCC2 [Compound 16a, 7-Cyano-6-(3-hexylureido)-N-phenyl-2,3-dihydro-1H-pyrrolizine-5-carboxamide] | 11.9 ± 0.87 µM | 590 ± 10 nM | 20.10 | 350 ± 180 nM | 33.89 | 850 ± 70 nM | 13.95 | 350 to 850 nM | 13.95–33.89 | 600 nM |  |  |  |  |  |  |
| CCCCCCNC(=O)Nc1c(C#N)c2n(c1C(=O)Nc1ccc(C)cc1)CCC2 [Compound 16b, 7-Cyano-6-(3-hexylureido)-N-(p-tolyl)-2,3-dihydro-1H-pyrrolizine-5-carboxamide] | 2.65 ± 0.29 µM | 1170 ± 310 nM | 2.26 | 230 ± 40 nM | 11.52 | 1560 ± 140 nM | 1.70 |  |  | 990 nM |  |  |  |  |  |  |
| CCCCCCNC(=O)Nc1c(C#N)c2n(c1C(=O)Nc1ccc(Cl)cc1)CCC2 [Compound 16c, N-(4-Chlorophenyl)-7-cyano-6-(3-hexylureido)-2,3-dihydro-1H-pyrrolizine-5-carboxamide] | 0.75 ± 0.14 µM | 34100 ± 4610 nM | 0.02 | 530 ± 100 nM | 1.42 | 3100 ± 100 nM | 0.24 |  |  | 12600 nM |  |  |  |  |  |  |
| COc1ccc(NC(=O)Nc2c(C#N)c3n(c2C(=O)Nc2ccccc2)CCC3)cc1 [Compound 17a, 7-Cyano-6-(3-(4-methoxyphenyl)ureido)-N-phenyl-2,3-dihydro-1H-pyrrolizine-5-carboxamide] | 2.3 ± 0.15 µM | 900 ± 110 nM | 2.56 | 440 ± 30 nM | 5.23 | 5290 ± 1510 nM | 0.43 |  |  | 2210 nM |  |  |  |  |  |  |
| COc1ccc(NC(=O)Nc2c(C#N)c3n(c2C(=O)Nc2ccc(C)cc2)CCC3)cc1 [Compound 17b, 7-Cyano-6-(3-(4-methoxyphenyl)ureido)-N-(p-tolyl)-2,3-dihydro-1H-pyrrolizine-5-carboxamide] | 6.2 ± 0.88 µM | 2850 ± 310 nM | 2.18 | 420 ± 70 nM | 14.76 | 1440 ± 170 nM | 4.31 |  |  | 1570 nM |  |  |  |  |  |  |
| COc1ccc(NC(=O)Nc2c(C#N)c3n(c2C(=O)Nc2ccc(Cl)cc2)CCC3)cc1 [Compound 17c, N-(4-Chlorophenyl)-7-cyano-6-(3-(4-methoxyphenyl)ureido)-2,3-dihydro-1H-pyrrolizine-5-carboxamide] | 3.8 ± 0.25 µM | 3360 ± 830 nM | 1.13 | 540 ± 20 nM | 7.04 | 420 ± 160 nM | 9.05 |  |  | 1440 nM |  |  |  |  |  |  |
| N#Cc1c(NC(=O)Nc2ccc(F)cc2)c(C(=O)Nc2ccccc2)n2c1CCC2 [Compound 18a, 7-Cyano-6-(3-(4-fluorophenyl)ureido)-N-phenyl-2,3-dihydro-1H-pyrrolizine-5-carboxamide] | 10.7 ± 0.61 µM | 10760 ± 70 nM | 0.99 | 10600 ± 2830 nM | 1.01 | 9130 ± 850 nM | 1.17 |  |  | 10200 nM |  |  |  |  |  |  |
| Cc1ccc(NC(=O)c2c(NC(=O)Nc3ccc(F)cc3)c(C#N)c3n2CCC3)cc1 [Compound 18b, 7-Cyano-6-(3-(4-fluorophenyl)ureido)-N-(p-tolyl)-2,3-dihydro-1H-pyrrolizine-5-carboxamide] | 1.46 ± 0.42 µM | 190 ± 20 nM | 7.68 | 970 ± 140 nM | 1.51 | 9710 ± 2250 nM | 0.15 |  |  | 3620 nM | G1 -S cell cycle arrest | 53% | 115 ± 3.2 nM | 20% |  |  |
| N#Cc1c(NC(=O)Nc2ccc(F)cc2)c(C(=O)Nc2ccc(Cl)cc2)n2c1CCC2 [Compound 18c, N-(4-Chlorophenyl)-7-cyano-6-(3-(4-fluorophenyl)ureido)-2,3-dihydro-1H-pyrrolizine-5-carboxamide] | 0.1 ± 0.01 µM | 290 ± 190 nM | 0.34 | 210 ± 100 nM | 0.48 | 1380 ± 20 nM | 0.07 |  |  | 630 nM |  |  |  |  |  |  |
| N#Cc1c(NC(=O)Nc2cccc3ccccc23)c(C(=O)Nc2ccccc2)n2c1CCC2 [Compound 19a, 7-Cyano-6-(3-(naphthalen-1-yl)ureido)-N-phenyl-2,3-dihydro-1H-pyrrolizine-5-carboxamide] | 2.67 ± 0.37 µM | 400 ± 420 nM | 6.68 | 320 ± 170 nM | 8.34 | 200 ± 10 nM | 13.35 |  |  | 310 nM | G1 -S cell cycle arrest | 70% | 25.5 ± 1.7 nM |  |  |  |
| Cc1ccc(NC(=O)c2c(NC(=O)Nc3cccc4ccccc34)c(C#N)c3n2CCC3)cc1 [Compound 19b, 7-Cyano-6-(3-(naphthalen-1-yl)ureido)-N-(p-tolyl)-2,3-dihydro-1H-pyrrolizine-5-carboxamide] | 1.54 ± 0.2 µM | 440 ± 90 nM | 3.50 | 5390 ± 1130 nM | 0.29 | 680 ± 140 nM | 2.26 |  |  | 2170 nM |  |  |  |  |  |  |
| N#Cc1c(NC(=O)Nc2cccc3ccccc23)c(C(=O)Nc2ccc(Cl)cc2)n2c1CCC2 [Compound 19c, N-(4-Chlorophenyl)-7-cyano-6-(3-(naphthalen-1-yl)ureido)-2,3-dihydro-1H-pyrrolizine-5-carboxamide] | 2.68 ± 0.37 µM | 1270 ± 10 nM | 2.11 | 3070 ± 1500 nM | 0.87 | 2560 ± 700 nM | 1.05 |  |  | 2300 nM |  |  |  |  |  |  |
| N#Cc1c(NC(=S)Nc2cccc3ccccc23)c(C(=O)Nc2ccccc2)n2c1CCC2 [Compound 20a, 7-Cyano-6-(3-(naphthalen-1-yl)thioureido)-N-phenyl-2,3-dihydro-1H-pyrrolizine-5-carboxamide] | 0.43 ± 0.13 µM | 420 ± 150 nM | 1.02 | 160 ± 10 nM | 2.69 | 720 ± 120 nM | 0.60 |  |  | 430 nM | G1 -S cell cycle arrest | 57% | 77.9 ± 2.2 nM | 38% | 39% | 47% |
| Cc1ccc(NC(=O)c2c(NC(=S)Nc3cccc4ccccc34)c(C#N)c3n2CCC3)cc1 [Compound 20b, 7-Cyano-6-(3-(naphthalen-1-yl)thioureido)-N-(p-tolyl)-2,3-dihydro-1H-pyrrolizine-5-carboxamide] | 2 ± 0.75 µM | 4970 ± 420 nM | 0.40 | 2040 ± 950 nM | 0.98 | 3830 ± 580 nM | 0.52 |  |  | 3610 nM |  |  |  |  |  |  |
| N#Cc1c(NC(=S)Nc2cccc3ccccc23)c(C(=O)Nc2ccc(Cl)cc2)n2c1CCC2 [Compound 20c, N-(4-chlorophenyl)-7-cyano-6-(3-(naphthalen-1-yl)thioureido)-2,3-dihydro-1H-pyrrolizine-5-carboxamide] | 2.92 ± 0.6 µM | 1760 ± 950 nM | 1.66 | 2810 ± 980 nM | 1.04 | 3670 ± 1650 nM | 0.80 |  |  | 2750 nM |  |  |  |  |  |  |
| CS(=O)(=O)CCNCc1ccc(-c2ccc3ncnc(Nc4ccc(OCc5cccc(F)c5)c(Cl)c4)c3c2)o1 [Lapatinib, lapatinib, reference compound] | 6.74 ± 1.22 µM | 6770 ± 1160 nM | 1.00 | 10500 ± 760 nM | 0.64 | 12500 ± 1270 nM | 0.54 | 6770 to 12500 nM |  | 9920 nM |  |  |  |  |  |  |
